From ChEMBL document CHEMBL1126349, “Synthesis and biological properties of 1069C: a new synthetic antitumour agent with very low cross-resistance potential” (Bioorg Med Chem Lett, 1992)
“And” between values parts separate entries of the source, which are not always exact repeats. Identical values can stand only once. The source made the active and inactive calls. The calls are words filed in the database; no cut-off is given here.

Legend:
[1] = tested on: P388; test: Compound was tested for % increase in life span of vincristine resistant P388 tumor; assay type: functional, Mus musculus
[2] = tested on: P388; test: The compound was evaluated in vitro for the inhibition of P388D1 cell colony formation.; assay type: functional, cell-based; details: Mus musculus
[3] = tested on: P388; test: The compound was evaluated in vitro for the inhibition of murine leukemia P388D1 cell proliferation.; assay type: functional, cell-based; details: Mus musculus
[4] = tested on: P388; test: Compound was tested for % increase in life span of P388 tumor; assay type: functional, Mus musculus
[5] = tested on: P388; test: Compound was tested for % increase in life span of adriamycin resistant P388 tumor; assay type: functional, Mus musculus
[6] = molecular target: T1, Tubulin alpha chain (Sus scrofa, UniProt P02550); test: The compound was evaluated in vitro for the mammalian brain tubulin polymerization using standard assay.; assay type: functional
T1 sequence (P02550 whole entry, looked up): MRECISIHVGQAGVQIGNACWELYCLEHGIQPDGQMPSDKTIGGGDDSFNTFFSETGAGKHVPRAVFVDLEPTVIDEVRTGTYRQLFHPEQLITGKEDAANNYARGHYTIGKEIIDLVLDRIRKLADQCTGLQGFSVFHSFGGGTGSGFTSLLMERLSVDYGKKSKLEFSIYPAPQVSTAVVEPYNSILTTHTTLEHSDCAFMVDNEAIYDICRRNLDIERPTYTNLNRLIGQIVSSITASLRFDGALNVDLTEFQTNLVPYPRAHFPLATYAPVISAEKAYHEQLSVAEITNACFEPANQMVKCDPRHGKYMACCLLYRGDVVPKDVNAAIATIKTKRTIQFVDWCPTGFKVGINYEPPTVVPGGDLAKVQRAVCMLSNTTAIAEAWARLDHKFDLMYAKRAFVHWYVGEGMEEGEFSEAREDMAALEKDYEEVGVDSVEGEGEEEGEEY

[7] = tested on: P388; test: The compound was evaluated in vitro for the P388 cell spindle disruption.; 0.02-0.04; assay type: functional, cell-based; details: Mus musculus
[8] = molecular target: T1, Tubulin alpha chain; test: Compound was tested for competitive inhibition with radioligand [3H]colchicine at colchicine site of mammalian tubulin
[9] = tested on: P388; test: The compound was evaluated in vitro for the P388 cell spindle disruption.; 0.006-0.009; assay type: functional, cell-based; details: Mus musculus
[10] = molecular target: T1, Tubulin alpha chain; test: In vitro mammalian brain tubulin polymerization using standard assay.; assay type: functional
[11] = molecular target: Tubulin alpha chain (Sus scrofa) (UniProt P02550); test: Compound was tested for competitive inhibition with radioligand [3H]colchicine or [3H]vinblastine at alkaloid site on mammalian tubulin; No effect
Chain of Tubulin alpha chain (Sus scrofa) (P02550 whole entry, looked up): as above

CC[C@]1(O)C[C@@H]2CN(CCc3c([nH]c4ccccc34)[C@@](C(=O)OC)(c3cc4c(cc3OC)N(C)[C@H]3[C@@](O)(C(=O)OC)[C@H](OC(C)=O)[C@]5(CC)C=CCN6CC[C@]43[C@@H]65)C2)C1 [VINBLASTINE]
ILS [1]: ~50%
IC50 [2]: 8.2 nM
IC50 [3]: 1.7 nM
ILS [4]: ~100%

CC[C@]1(O)C[C@H]2CN(CCc3c([nH]c4ccccc34)[C@@](C(=O)OC)(c3cc4c(cc3OC)N(C=O)[C@H]3[C@@](O)(C(=O)OC)[C@H](OC(C)=O)[C@]5(CC)C=CCN6CC[C@]43[C@@H]65)C2)C1 [VINCRISTINE]
ILS [5]: ~5%
ILS [1]: ~10%
IC50 [6]: 220 nM
EC50 [7]: 20 nM
IC50 [2]: 190 nM
IC50 [3]: 4.7 nM
ILS [4]: ~130%

COC(=O)Nc1cn2nc(OCc3cc(OC)c(OC)c(OC)c3)ccc2n1
ILS [5]: ~110%
ILS [1]: ~170%
Ki [8]: 750 nM
EC50 [9]: 6 nM
IC50 [10]: 310 nM
IC50 [2]: 13 nM
IC50 [3]: 8.9 nM
ILS [4]: ~147% and ~120%
Activity [11]: inactive

COc1cc([C@@H]2c3cc4c(cc3[C@@H](O[C@@H]3O[C@@H]5CO[C@@H](C)O[C@H]5[C@H](O)[C@H]3O)[C@H]3COC(=O)[C@H]23)OCO4)cc(OC)c1O [ETOPOSIDE]
ILS [5]: ~20%
ILS [4]: ~80%

COc1cc2c(c(OC)c1OC)-c1ccc(OC)c(=O)cc1[C@@H](NC(C)=O)CC2 [COLCHICINE]
ILS [1]: ~75%
IC50 [2]: 71 nM
IC50 [3]: 0.62 nM
ILS [4]: ~85%

COc1cccc2c1C(=O)c1c(O)c3c(c(O)c1C2=O)C[C@@](O)(C(=O)CO)C[C@@H]3O[C@H]1C[C@H](N)[C@H](O)[C@H](C)O1 [DOXORUBICIN]
ILS [5]: ~25%
ILS [4]: ~120%
